Test results as given in patent US10576082B2, “ErbB2 regulates autophagic flux to modulate the proteostasis of APP-CTFs in alzheimer's disease” (Academia Sinica, priority 2016, dated 2020).

Tested on: HEK293 cells overexpressing C99-YFP
Experiment: Western blotting of HEK293 cells overexpressing C99-YFP
Type: cell-based
Conditions: 1 μM, 37° C., 24 h
Procedure: (A) Adherent CG and NG cells (20,000 cells/well) were treated with 1 μM of the indicated ErbB1/2-selective tyrosine kinase inhibitors in the presence of 1 μg/ml tetracycline at 37° C. for 24 h. The luminescence signals emitted by cells treated with vehicle alone (Ctrl, 0.1% DMSO) were referred to as 100% relative luminescence signals. The luminescence signals generated by γ-secretase-mediated proteolysis of C99 (CG) or NΔE (NG) were determined using the Steady-Glo luciferase assay reagent. (B) HEK293 overexpressing C99-YFP cells were treated with 1 μM of the indicated ErbB1/2 tyrosine kinase inhibitors at 37° C. for 24 h. Clarified lysates were analyzed by Western blotting and quantified by Image J. (C) HEK293 overexpressing ErbB1 ErbB2, CFP-tagged C99, and YFP-tagged NΔE cells were infected with gene-targeting shRNA-encoding lentivirus (shErbB1 or shErbB2) at 37° C. for 48 h. Clarified lysates containing equivalent amounts of proteins were examined by Western blotting and quantified by Image J. (D) CG and NG cells were infected with gene-targeting shRNA-encoding lentivirus at 37° C. for 48 h. Following induction with 1 μg/ml tetracycline for 24 h. Cells infected with empty lentivirus (w/o) or LacZ-targeting shRNA lentivirus (shCtrl_a and shCtrl_b) were included as controls. Data are shown as the mean±SD from three independent experiments, and were analyzed by Student's t-tests. * p<0.05.
Clarified lysates containing equivalent amounts of proteins were analyzed by Western blotting. (B, C) HEK293 overexpressing CFP-LC3 cells were infected with lentivirus encoding shRNA targeting LacZ ErbB2, or ErbB2 plus ATG5 for 48 h. The autophagy induction was analyzed by fluorescence confocal microscopy. The number of CFP-LC3 puncta per cell was quantified. The levels of LC3-I, LC3-II, and GAPDH were analyzed by Western blotting. (D, E) HEK293 cells overexpressing ErbB1, ErbB2, CFP-tagged C99, and YFP-tagged NΔE were infected with lentivirus encoding shRNA targeting LacZ (Ctrl), ErbB1, or ErbB2 for 48 h. Infection mixtures were replaced with 2 ml of fresh culture medium, and infected cells were then incubated at 37° C. for an additional 24 h. The levels of LC3-1, LC3-II, and p62 were analyzed by Western blotting and quantified by NIH Image J. Conditional media were harvested and processed for determination of secreted Aβ40 using a colourimetric Aβ40-specific ELISA kit. (F, G) HEK293 cells overexpressing C99-YFP were treated with vehicle (DMSO) or 1 μM CL-387,785 at 37° C. for 24 h and analyzed by Western blotting. Conditional media were harvested for determination of secreted Aβ40. The quantitative data are shown as mean±SD from three independent experiments, and were analyzed by Student's t-tests. * p<0.05.
Preparation of cell extracts. To prepare total cell-free extracts, we harvested cells in 6-well microplates with ice-cold PBS containing 20 mM EDTA, and then pelleted the cells by centrifugation. PBS-washed cells were resuspended in a lysis buffer containing 1% Triton X-100, 50 mM Tris-HCl pH 7.5, 150 mM NaCl, 25 mM β-glycerophosphate, 1 mM Na3VO4, and protease inhibitor cocktail set V (Merck). Following the removal of cell debris by centrifugation, clarified lysates were processed for immunoprecipitation, Western blotting, or quantification of BCA protein content.
Western blotting analysis. Protein concentration was measured with the BCA Protein Assay Kit (Pierce). […]

CC#CC(=O)Nc1ccc2ncnc(Nc3cccc(Br)c3)c2c1 [CL-387,785, N-[4-[(3-bromophenyl)amino]-6-quinazolinyl]-2-butynamide]
LC3-II/LC3-I ratio: concurrent increase | level of AICD: concomitantly decreased | level of C99: concomitantly decreased | level of ErbB2: concomitantly decreased | level of p62: significant reduction
